Test results: patent US11638427B2, “Methods and compositions for altering secondary metabolites in plants” (Impello Biosciences, Inc, priority 2020, dated 2023)

Assays:
Penicillium spp. = experiment: Mold growth on jasmonate-infused plates, mold isolated from orange; assay type: cell-based; settings: various concentrations in plates
Description: (§1) MDJ (TCI, CAS No.: 24851-98-7) and CJ were infused into potato dextrose agar (PDA, VWR Cat No.: 90003-494) petri dishes (100×15 mm VWR, Cat No: 25384-094) at concentrations ranging from 1 mM, 4.25 mM, and 10 mM. Each treatment was prepared using a technical grade stock solution of pure chemical (CJ or MDJ) diluted with TWEEN®-20 (VWR, CAS No.: […]). Culturable oyster mushroom and seedling mold served to create fungal mycelial plugs using a sterile 1 mL pipette tip (Eppendorf, Cat No.: 022491458) held upside down. The tips were used to make circle excisions (i.e., fungal plugs) from a mycelial mat grown on PDA with no biochemical infusions. Fungal pugs were then transferred to PDA infused with varying concentrations of CJ or MDJ, and control plates (no CJ or MDJ infusion) to monitor fungal growth at room temperature over time.
Based on the above results in Cannabis spp., additional fungi from various crops was sampled and tested. Plates comprising various concentrations of MDJ or MJ were prepared as described above.

[1] = tested on: hemp clones cv. Cherry in the vegetative stage; experiment: Root drench of MeJA or MDJ, phytotoxicity; assay type: in vivo, Cannabis spp.; settings: for plants deceased in 72 hours: 250 mL, n=4; for phytotoxicity to plants in the vegetative stage: root drench, concentrations above 10 mM, within 72 hours
Description: To investigate if higher concentrations of jasmonate elicitors would be tolerated in cannabis by root drench, four different concentrations, [7.5 mM], [10 mM], [15 mM] and [20 mM] were applied to hemp clones (n=4 per treatment group, cv.: Cherry, CBDRx) in the vegetative stage. Treatment concentrations were prepared from methyl dihydrojasmonate (MDJ, TCI, CAS No.: 24851-98-7) and methyl Jasmonate (MeJA, TCI, CAS No.: […]) with 1% TWEEN®-20 added (VWR, CAS No.: […]).
The roots of each clone in each treatment group were treated with 250 mL of each compound once per week. Plants were grown under a total of 12 Boost (Thrive Agritech, NY) 130-watt LED lights set to 18L: 6D photoperiod during the vegetative phase (2 weeks) or until phytotoxicity observed.

grey mold = experiment: Fungal plug growth on jasmonate-infused PDA plates; assay type: cell-based, Rhizopus stolonifera; settings: for grey mold growth: 1 mM, 4.25 mM, 10 mM in PDA, 72 hours post inoculation
Description: as §1
A grey mold was also tested (FIGS. 10A-10D). All plates were generated and inoculated as described above and incubated at room temperature under identical conditions. Shown in […] are plates of grey mold 72 hours post fungal inoculation. Control plates are shown on the top row, followed by concentrations of MeJA (left) and MDJ (right) in duplicate at […] (FIG. 10A), 4.25 mM (FIG. 10B), and 10 mM (FIG. 10C). […] While it was initially hypothesized that the grey mod was a species of Botrytis, subsequent sequence analysis identified the mold as Rhizopus stolonifera.

[2] = tested on: high-CBD hemp varieties Stormy Daniels and BaOX; experiment: Field foliar applications of MDJ, MeJA and CJ on high-CBD hemp, cannabinoid analysis; assay type: in vivo, Cannabis spp.; settings: 7.5 mM foliar, four applications every 14 days in flowering
Description: However, MDJ is not known to have any significant bioactivity in planta and is not an endogenously produced phytohormone in cannabis, so it was unknown whether MDJ would afford the same functionality as MeJA. Similarly, CJ has likewise been relatively under-investigated as a plant elicitor despite being a decarboxylation product of Jasmonic Acid. Here, the effect of MDJ and CJ were analyzed (in addition to MeJA) in order to determine any difference in the effect of these treatments on field-grown high-CBD hemp varieties.
A hemp field experiment was conducted during the flowering phase of plant development in a private research field located in North Carolina. Sixty (60) plants from two distinct plant variety populations, Stormy Daniels and BaOX were selected for the trial. Each group of 60 plants was randomly divided into three groups of 20 plants and labeled accordingly to indicate the treatment group (T1, T2, T3). All plants were cultivated identically and subjected to approximately the same environmental conditions. Control, untreated plants were taken from the same field. Plants were treated according to treatment group, and each treatment group was subjected to four (4) applications of its respective treatment, with the first treatments applied on what was considered to be the first day of the flowering phase and repeated then again every successive 14 days up until just prior to harvest. Treatments were as follows: Control group=Control, Treatment 1=MDJ, Treatment 2=MeJA, Treatment 3=CJ.
All treatments were prepared in a stock (concentrated, non-aqueous) form by Impello Biosciences in their lab in Loveland, Colo. and labelled respectively prior to the start of the experiment. All treatments were prepared at a high stock concentration that allowed dilution by the applicator with 2 liters of water to a final 7.5 mM concentration of active ingredient (i.e., MeJA, MDJ, or CJ) for each treatment; 15-mL centrifuge tubes were used as preparation and storage vessels for each of the treatments. Preparation of the stock solutions ensured that the applicator could store the solutions prior to use at 4° C. to minimize degradation and allow for dilution immediately prior to use. In the stock containers, 2 mL of TWEEN®-20 was added to each respective elicitor compound as an emulsifier in order to reach a final oil-in-water emulsion once diluted with a concentration of 7.5 mM active ingredient and 0.1% surfactant (i.e., TWEEN®-20) v/v.
Plants were grown to maturity and 5 plants from each treatment and control group were sampled on Sep. 23, 2019. Care was taken to ensure samples were similar in appearance and spatial location between plants to minimize unintended variance in sample quality. The apical cola for each plant was harvested, and specifically, the top 3″ of the main cola. Yield data was not collected in this study, but no obvious differences in plant size or appearance were noted. Samples were submitted for chemical analysis (Avazyme, Inc, NC).
All models were linear models fit with Group (treatment) as the independent variable and the response variable was the corresponding compound. Data was filtered and comparison between treatments were conducted using the emmeans package and Tukey HSD for post-hoc corrections. Statistical significance was defined by a level of significance of p<0.05 in the Tukey test. Total cannabinoids included CBN, Δ9-THC, CBDV, CBG, CBD, CBC, CBDA, CBGA, THCA, and THCV. Total THC and total CBD were calculated by accounting for the additional weight of the carboxyl group in the acidic forms and adding those to the neutral/non-acidic forms.

| SMILES | growth of mold isolated from orange (Penicillium spp.) | plants deceased in 72 hours ([1]; root drench 10 mM) | plants deceased in 72 hours ([1]; root drench 15 mM) | plants deceased in 72 hours ([1]; root drench 20 mM) | phytotoxicity to plants in the vegetative stage [1] | grey mold growth (grey mold) | efficacy at inhibiting grey mold, MDJ compared with MeJA (grey mold; at the 1 mM concentration, 72 hours) | CBDA increase relative to the control group [2] [%] | THCA increase relative to the control group [2] [%] | Total CBD increase relative to the control group [2] [%] | Total Cannabinoids increase relative to the control group [2] [%] | Total THC increase relative to the control group [2] [%] | efficacy at inhibiting grey mold, MeJA compared with MDJ (grey mold; at 4.25 mM and 10 mM concentrations, 72 hours) |
| --- | --- | --- | --- | --- | --- | --- | --- | --- | --- | --- | --- | --- | --- |
| CCCCCC1C(=O)CCC1CC(=O)OC (centres unmarked) [MDJ, methyl dihydrojasmonate] | effective at preventing the growth | three out of four | all four | all four | phytotoxic | inhibited | more effective | 16.53 | 19.69 | 16.62 | 16.38 | 19.61 | – |
| CC/C=C\C[C@H]1C(=O)CC[C@@H]1CC(=O)OC [MeJA, Methyl Jasmonate] | effective at preventing the growth | – | three out of four | three out of four | phytotoxic | inhibited | – | 5.36 | 5.36 | 5.75 | 5.64 | 6.06 | more effective |
